# Values of other authors as cited in patent US4716040A, “Controlled absorption methyldopa pharmaceutical formulation” (Elan Corporation P.L.C., priority 1983, dated 1987).
# Tests used:
# [1] = test system: decarboxylation of dopa to dopamine
structure (smiles),measurement,setting,value
"C[C@](N)(Cc1ccc(O)c(O)c1)C(=O)O [methyldopa, 3-hydroxy-α-methyl-L-tyrosine]",decarboxylation of dopa to dopamine,[1],inhibits
same,unchanged methyldopa in urine,of the methyldopa eliminated in the urine,about 25%
same,fraction of oral dose absorbed,oral,about one half
same,metabolites in urine,remainder of the methyldopa eliminated in the urine,mainly a mono-O-sulphate of methyldopa
same,oedema,hypertension; methyldopa therapy,sometimes observed
same,effect on standing and supine blood pressure,hypertension; moderate to severe hypertension,reducing the standing blood pressure and also reduces the supine blood pressure
same,maximum hypotensive effect may not occur until,hypertension; oral,second day of treatment
same,onset of effects after oral administration,hypertension; oral,about 2 hours
same,some effect still usually apparent after a dose,hypertension; oral,24 h
